# Results from patent US20260262643A1, “HERBICIDAL BENZOXAZINES” (FMC CORPORATION, priority 2022, published 2026).
# How the values were obtained:
# [1] = tested on: green foxtail; assay: Test C postemergence; assay type: in vivo, Setaria viridis; conditions: 10 days
# Summary of the method: (§1)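 Seeds in loam–sand blend received preemergence directed soil spray of test chemicals in non-phytotoxic solvent with surfactant; postemergence treatment was applied at one- to two-leaf stage (2–10 cm). After 10 days in greenhouse, injury rated visually versus untreated controls, 0 (no effect) to 100 (complete control).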
# [2] = tested on: sedge, umbrella; assay: Test D flooded paddy test; assay type: in vivo, Cyperus difformis; conditions: 250 g ai/ha, applied to paddy water, visual rating after 13 to 14 days, scale 0 to 100 (0 no effect, 100 complete control)
# Summary of the method: (§2)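 2-leaf plants; flood 3 cm above soil; compound dosed into paddy water; greenhouse 13–14 d; visual rating vs controls, 0–100 (100 = complete control); dash = not tested.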
# [3] = tested on: barnyardgrass; assay: Test D flooded paddy test; assay type: in vivo, Echinochloa crus-galli; conditions: 250 g ai/ha, applied to paddy water, visual rating after 13 to 14 days, scale 0 to 100 (0 no effect, 100 complete control)
# Summary of the method: as §2
# [4] = tested on: ducksalad; assay: Test D flooded paddy test; assay type: in vivo, Heteranthera limosa; conditions: 250 g ai/ha, applied to paddy water, visual rating after 13 to 14 days, scale 0 to 100 (0 no effect, 100 complete control)
# Summary of the method: as §2
# [5] = tested on: corn; assay: Test C postemergence; assay type: in vivo, Zea mays; conditions: 10 days
# Summary of the method: as §1
# [6] = tested on: blackgrass; assay: Test C preemergence; assay type: in vivo, Alopecurus myosuroides; conditions: 0 to 100 scale (0 no effect, 100 complete control); for Blackgrass plant response rating: preemergence
# Summary of the method: as §1
# [7] = tested on: ragweed; assay: Test C preemergence; assay type: in vivo, Ambrosia artemisiifolia; conditions: 0 to 100 scale (0 no effect, 100 complete control); for Ragweed plant response rating: preemergence
# Summary of the method: as §1
# [8] = tested on: pigweed, palmer; assay: Test C preemergence; assay type: in vivo, Amaranthus palmeri; conditions: 0 to 100 scale (0 no effect, 100 complete control); for Pigweed, Palmer plant response rating: preemergence
# Summary of the method: as §1
# [9] = tested on: kochia; assay: Test C postemergence; assay type: in vivo, Bassia scoparia; conditions: 10 days
# Summary of the method: as §1
# [10] = tested on: oat, wild; assay: Test C preemergence; assay type: in vivo, Avena fatua; conditions: 0 to 100 scale (0 no effect, 100 complete control); for Oat, Wild plant response rating: preemergence
# Summary of the method: as §1
# [11] = tested on: galium; assay: Test C postemergence; assay type: in vivo, Galium aparine; conditions: 10 days
# Summary of the method: as §1
# [12] = tested on: horseweed; assay: Test C postemergence; assay type: in vivo, Erigeron canadensis; conditions: 10 days
# Summary of the method: as §1
# [13] = tested on: oat, wild; assay: Test C postemergence; assay type: in vivo, Avena fatua; conditions: 10 days
# Summary of the method: as §1
# [14] = tested on: ryegrass, Italian; assay: Test C postemergence; assay type: in vivo, Lolium multiflorum; conditions: 10 days
# Summary of the method: as §1
# [15] = tested on: wheat; assay: Test C postemergence; assay type: in vivo, Triticum aestivum; conditions: 10 days
# Summary of the method: as §1
# [16] = tested on: barnyardgrass; assay: Test C preemergence; assay type: in vivo, Echinochloa crusgalli; conditions: 0 to 100 scale (0 no effect, 100 complete control); for Barnyardgrass plant response rating: preemergence
# Summary of the method: as §1
# [17] = tested on: kochia; assay: Test C preemergence; assay type: in vivo, Bassia scoparia; conditions: 0 to 100 scale (0 no effect, 100 complete control); for Kochia plant response rating: preemergence
# Summary of the method: as §1
# [18] = tested on: rice; assay: Test D flooded paddy test; assay type: in vivo, Oryza sativa; conditions: 250 g ai/ha, applied to paddy water, visual rating after 13 to 14 days, scale 0 to 100 (0 no effect, 100 complete control)
# Summary of the method: as §2
# [19] = tested on: ragweed; assay: Test C postemergence; assay type: in vivo, Ambrosia artemisiifolia; conditions: 10 days
# Summary of the method: as §1
# [20] = tested on: barnyardgrass; assay: Test C postemergence; assay type: in vivo, Echinochloa crusgalli; conditions: 10 days
# Summary of the method: as §1
# [21] = tested on: pigweed, palmer; assay: Test C postemergence; assay type: in vivo, Amaranthus palmeri; conditions: 10 days
# Summary of the method: as §1
# [22] = tested on: corn; assay: Test C preemergence; assay type: in vivo, Zea mays; conditions: 0 to 100 scale (0 no effect, 100 complete control); for Corn plant response rating: preemergence
# Summary of the method: as §1
# [23] = tested on: ryegrass, Italian; assay: Test C preemergence; assay type: in vivo, Lolium multiflorum; conditions: 0 to 100 scale (0 no effect, 100 complete control); for Ryegrass, Italian plant response rating: preemergence
# Summary of the method: as §1
# [24] = tested on: soybean; assay: Test C preemergence; assay type: in vivo, Glycine max; conditions: 0 to 100 scale (0 no effect, 100 complete control); for Soybean plant response rating: preemergence
# Summary of the method: as §1
# [25] = tested on: soybean; assay: Test C postemergence; assay type: in vivo, Glycine max; conditions: 10 days
# Summary of the method: as §1
# [26] = tested on: wheat; assay: Test C preemergence; assay type: in vivo, Triticum aestivum; conditions: 0 to 100 scale (0 no effect, 100 complete control); for Wheat plant response rating: preemergence
# Summary of the method: as §1
# [27] = tested on: blackgrass; assay: Test C postemergence; assay type: in vivo, Alopecurus myosuroides; conditions: 10 days
# Summary of the method: as §1
# [28] = tested on: green foxtail; assay: Test C preemergence; assay type: in vivo, Setaria viridis; conditions: 0 to 100 scale (0 no effect, 100 complete control); for Foxtail, Green plant response rating: preemergence
# Summary of the method: as §1
# [29] = 125 g ai/ha, postemergence, 0 to 100 scale, 0 no effect, 100 complete control
# [30] = Postemergence, 500 g ai/ha, visual 0 to 100 scale (0 no effect, 100 complete control)
# [31] = Preemergence, 500 g ai/ha, visual rating after 10 days
# [32] = 500 g ai/ha, postemergence, 0 to 100 scale (0 no effect, 100 complete control)
# [33] = Postemergence, 125 g ai/ha, 0 to 100 scale (0 no effect, 100 complete control)
compound,measurement,setting,value
Cc1ccc(-n2cnc(C(C)C)n2)cc1C(=O)N1C[C@H](C)Oc2c(F)cccc21 [Compound 242],"Plant response rating, Foxtail, Green",[1]; [29],80
same,"Plant response rating, Foxtail, Green",[1]; [30],90
same,"Plant response rating, Sedge, Umbrella (Flood)",[2],98
same,"Plant response rating, Barnyardgrass (Flood)",[3],55
same,"Plant response rating, Ducksalad (Flood)",[4],95
same,"Plant response rating, Corn",[5]; [29],60
same,"Plant response rating, Corn",[5]; [30],90
same,"Plant response rating, Blackgrass",[6]; [31],90
same,Blackgrass plant response rating,"[6]; Test C, 125 g ai/ha",90
same,"Plant response rating, Ragweed",[7]; [31],100
same,Ragweed plant response rating,"[7]; Test C, 125 g ai/ha",0
same,"Plant response rating, Pigweed, Palmer",[8]; [31],100
same,"Pigweed, Palmer plant response rating","[8]; Test C, 125 g ai/ha",100
same,"Plant response rating, Kochia",[9]; [29],30
same,"Plant response rating, Kochia",[9]; [30],80
same,"Plant response rating, Oat, Wild",[10]; [31],90
same,"Oat, Wild plant response rating","[10]; Test C, 125 g ai/ha",90
same,"Plant response rating, Galium",[11]; [29],100
same,"Plant response rating, Galium",[11]; [30],100
same,"Plant response rating, Horseweed",[12]; [29],50
same,"Plant response rating, Horseweed",[12]; [30],80
same,"Plant response rating, Oat, Wild",[13]; [29],80
same,"Plant response rating, Oat, Wild",[13]; [30],90
same,"Plant response rating, Ryegrass, Italian",[14]; [29],90
same,"Plant response rating, Ryegrass, Italian",[14]; [30],100
same,"Plant response rating, Wheat",[15]; [29],80
same,"Plant response rating, Wheat",[15]; [30],90
same,"Plant response rating, Barnyardgrass",[16]; [31],100
same,Barnyardgrass plant response rating,"[16]; Test C, 125 g ai/ha",100
same,"Plant response rating, Kochia",[17]; [31],100
same,Kochia plant response rating,"[17]; Test C, 125 g ai/ha",90
same,"Plant response rating, Rice (Flood)",[18],15
same,"Plant response rating, Ragweed",[19]; [29],60
same,"Plant response rating, Ragweed",[19]; [30],90
same,"Plant response rating, Barnyardgrass",[20]; [29],90
same,"Plant response rating, Barnyardgrass",[20]; [30],100
same,"Plant response rating, Pigweed, Palmer",[21]; [29],80
same,"Plant response rating, Pigweed, Palmer",[21]; [30],90
same,"Plant response rating, Corn",[22]; [31],70
same,Corn plant response rating,"[22]; Test C, 125 g ai/ha",30
same,"Plant response rating, Ryegrass, Italian",[23]; [31],100
same,"Ryegrass, Italian plant response rating","[23]; Test C, 125 g ai/ha",100
same,"Plant response rating, Soybean",[24]; [31],100
same,Soybean plant response rating,"[24]; Test C, 125 g ai/ha",90
same,"Plant response rating, Soybean",[25]; [29],100
same,"Plant response rating, Soybean",[25]; [30],100
same,"Plant response rating, Wheat",[26]; [31],90
same,Wheat plant response rating,"[26]; Test C, 125 g ai/ha",60
same,"Plant response rating, Blackgrass",[27]; [29],80
same,"Plant response rating, Blackgrass",[27]; [30],100
same,"Plant response rating, Foxtail, Green",[28]; [31],100
same,"Foxtail, Green plant response rating","[28]; Test C, 125 g ai/ha",100
Cc1cccc2c1O[C@@H](C)CN2C(=O)c1cccc(-n2cnc(N)n2)c1 [Compound 308],"Plant response rating, Foxtail, Green",[1]; [32],50
same,"Plant response rating, Foxtail, Green",[1]; [33],20
same,"Plant response rating, Sedge, Umbrella (Flood)",[2],0
same,"Plant response rating, Barnyardgrass (Flood)",[3],0
same,"Plant response rating, Ducksalad (Flood)",[4],0
same,"Plant response rating, Corn",[5]; [32],40
same,"Plant response rating, Corn",[5]; [33],10
same,Blackgrass plant response rating,[6]; 500 g ai/ha,30
same,Blackgrass plant response rating,"[6]; Test C, 125 g ai/ha",0
same,Ragweed plant response rating,[7]; 500 g ai/ha,20
same,Ragweed plant response rating,"[7]; Test C, 125 g ai/ha",30
same,"Pigweed, Palmer plant response rating",[8]; 500 g ai/ha,80
same,"Pigweed, Palmer plant response rating","[8]; Test C, 125 g ai/ha",20
same,"Plant response rating, Kochia",[9]; [32],20
same,"Plant response rating, Kochia",[9]; [33],20
same,"Oat, Wild plant response rating",[10]; 500 g ai/ha,70
same,"Oat, Wild plant response rating","[10]; Test C, 125 g ai/ha",0
same,"Plant response rating, Galium",[11]; [32],80
same,"Plant response rating, Galium",[11]; [33],70
same,"Plant response rating, Horseweed",[12]; [32],0
same,"Plant response rating, Horseweed",[12]; [33],20
same,"Plant response rating, Oat, Wild",[13]; [32],0
same,"Plant response rating, Oat, Wild",[13]; [33],0
same,"Plant response rating, Ryegrass, Italian",[14]; [32],20
same,"Plant response rating, Ryegrass, Italian",[14]; [33],0
same,"Plant response rating, Wheat",[15]; [32],20
same,"Plant response rating, Wheat",[15]; [33],10
same,Barnyardgrass plant response rating,[16]; 500 g ai/ha,50
same,Barnyardgrass plant response rating,"[16]; Test C, 125 g ai/ha",0
same,Kochia plant response rating,[17]; 500 g ai/ha,20
same,Kochia plant response rating,"[17]; Test C, 125 g ai/ha",0
same,"Plant response rating, Rice (Flood)",[18],0
same,"Plant response rating, Ragweed",[19]; [32],30
same,"Plant response rating, Ragweed",[19]; [33],0
same,"Plant response rating, Barnyardgrass",[20]; [32],30
same,"Plant response rating, Barnyardgrass",[20]; [33],10
same,"Plant response rating, Pigweed, Palmer",[21]; [32],50
same,"Plant response rating, Pigweed, Palmer",[21]; [33],10
same,Corn plant response rating,[22]; 500 g ai/ha,0
same,Corn plant response rating,"[22]; Test C, 125 g ai/ha",0
same,"Ryegrass, Italian plant response rating",[23]; 500 g ai/ha,70
same,"Ryegrass, Italian plant response rating","[23]; Test C, 125 g ai/ha",30
same,Soybean plant response rating,[24]; 500 g ai/ha,0
same,Soybean plant response rating,"[24]; Test C, 125 g ai/ha",0
same,"Plant response rating, Soybean",[25]; [32],100
same,"Plant response rating, Soybean",[25]; [33],90
same,Wheat plant response rating,[26]; 500 g ai/ha,30
same,Wheat plant response rating,"[26]; Test C, 125 g ai/ha",0
same,"Plant response rating, Blackgrass",[27]; [32],60
same,"Plant response rating, Blackgrass",[27]; [33],10
same,"Foxtail, Green plant response rating",[28]; 500 g ai/ha,90
same,"Foxtail, Green plant response rating","[28]; Test C, 125 g ai/ha",30
